Assay results taken from patent US8969554B2, “6-acyl-1,2,4-triazine-3,5-dione derivative and herbicides” (Kumiai Chemical Industry Co., Ltd., priority 2010, dated 2015).

Legend:
Format in all cases: in vivo
Design in all cases: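 index 0 to 10 in 10% steps of herbicidal effect with 10 meaning complete death and 0 below 10%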
Indian millet [1] = assay: Herbicidal activity by field foliage treatment (Test example 3); conditions: 1000 g effective component per hectare, day 14 after the treatment
Description: (§1) [table] Test for Determining Herbicidal Activity by Field Foliage Treatment A 80 cm^2 wide plastic pot was filled with a field soil and seeds of each of Indian millet and A. retroflexus were sowed and then incubated for 2 weeks in a green house. The wettable powder produced with reference to the Formulation example 1 was diluted water, and applied from the air to entire body of the plant as foliage treatment by using a small sprayer in an amount of 1000 liters per hectare so that the effective component is 1000 g per hectare. After that, the plants were cultivated in a greenhouse, and on day 14 after the treatment, evaluation was made by the criteria described in Table 72 for determining the herbicidal effects.

A. retroflexus [2] = assay: as above; conditions: 1000 g effective component per hectare, day 14 after the treatment
Description: as §1

Monochoria vaginalis = assay: Herbicidal activity by paddy field soil treatment (Test Example 1); conditions: 1000 g of effective component per hectare, evaluated on day 21 after the treatment, criteria of Table 72
Description: (§2) Test for Determining Herbicidal Activity by Paddy Field Soil Treatment A 100 cm^2 wide plastic pot was filled with a paddy field soil and, after watering and shuffling, seeds of each of Echinochloa oryzicola, Monochoria vaginalis, and Scirpus juncoides Rocxb. were sowed and watered to a depth of 3 cm. On the next day, the wettable powder obtained in view of Formulation example 1 was diluted with water and applied on water surface. The application amount was 1000 g of effective component per hectare. After that, the plants were cultivated in a greenhouse, and on day 21 after the treatment, evaluation was made by the criteria of Table 72 for determining the herbicidal effects. [table]

Echinochloa oryzicola = assay: as above; conditions: 1000 g of effective component per hectare, evaluated on day 21 after the treatment, criteria of Table 72
Description: as §2

Scirpus juncoides Rocxb. = assay: as above; conditions: applied on water surface, 1000 g of effective component per hectare, day 21 after the treatment
Description: as §2

Echinochloa crus-galli [3] = assay: Herbicidal activity by field soil treatment (Test example 2); conditions: 1000 g effective component per hectare, day 21 after the treatment
Description: (§3) [table] Test for Determining Herbicidal Activity by Field Soil Treatment A 80 cm^2 wide plastic pot was filled with a field soil and seeds of each of Echinochloa crus-galli, foxtail, Indian millet, and A. retroflexus were sowed and then covered with soil. The wettable powder produced with reference to the Formulation example 1 was diluted water, and applied on the soil surface by using a small sprayer in an amount of 1000 liters per hectare so that the effective component is 1000 g per hectare. After that, the plants were cultivated in a greenhouse, and on day 21 after the treatment, evaluation was made by the criteria described in Table 72 for determining the herbicidal effects.

A. retroflexus [4] = assay: as above; conditions: 1000 g effective component per hectare, day 21 after the treatment
Description: as §3

Echinochloa crus-galli [5] = assay: Herbicidal activity by field foliage treatment (Test example 3); conditions: 1000 g effective component per hectare, day 14 after the treatment
Description: as §1, with “Test example 3” for “[table]”

Indian millet [6] = assay: Herbicidal activity by field soil treatment (Test example 2); conditions: 1000 g effective component per hectare, day 21 after the treatment
Description: as §3

Row | SMILES | herbicidal effect index, Abutilon theophrasti (Indian millet [1]) | herbicidal effect index, Amaranthus retroflexus (A. retroflexus [2]) | Herbicidal effects index number, Monochoria vaginalis (Monochoria vaginalis) | Herbicidal effects index number, Echinochloa oryzicola (Echinochloa oryzicola) | herbicidal effect index, S. juncoides Rocxb. (Scirpus juncoides Rocxb.) | herbicidal effect index, Echinochloa crus-galli (Echinochloa crus-galli [3]) | herbicidal effect index, Amaranthus retroflexus (A. retroflexus [4]) | herbicidal effect index, Echinochloa crus-galli (Echinochloa crus-galli [5]) | herbicidal effect index, Abutilon theophrasti (Indian millet [6])
1 | CCCCCCn1c(=O)c(C(=O)C2=C(O)CCCC2=O)nn(C)c1=O [I-9] | 10 | 10 | 8 | 8 | 8 | 7 | 10 | 10 | 
2 | Cn1nc(C(=O)C2=C(O)CCCC2=O)c(=O)n(-c2ccc(Cl)cc2)c1=O [I-53] | 10 | 10 | 7 | 10 | 10 | 8 | 10 | 8 | 10
3 | Cc1ccc(-n2c(=O)c(C(=O)C3=C(O)CCCC3=O)nn(C)c2=O)cc1 [I-59] | 10 | 10 | 10 | 10 | 10 |  | 10 | 7 | 10
4 | COc1cccc(-n2c(=O)c(C(=O)C3=C(O)CCCC3=O)nn(C)c2=O)c1 [I-61] | 10 | 10 | 10 | 8 | 10 | 8 | 10 | 9 | 10
5 | Cn1nc(C(=O)C2=C(O)CCCC2=O)c(=O)n(-c2cccc(C(F)(F)F)c2)c1=O [I-64] | 10 | 10 | 10 | 10 | 10 | 10 | 10 | 10 | 10
6 | Cn1nc(C(=O)C2=C(O)CCCC2=O)c(=O)n(-c2ccc(C(F)(F)F)cc2)c1=O [I-65] | 10 | 10 | 10 | 10 | 10 | 10 | 10 | 8 | 10
7 | COc1ccc(-n2c(=O)c(C(=O)C3=C(O)CCCC3=O)nn(C)c2=O)c(OC)c1 [I-96] | 9 | 10 | 10 | 8 | 10 |  | 10 | 7 | 10
8 | Cc1ccc(-n2c(=O)c(C(=O)C3=C(O)CCCC3=O)nn(C)c2=O)c(F)c1 [I-108] | 9 | 10 | 10 | 10 | 10 |  | 10 |  | 8
9 | Cn1nc(C(=O)C2=C(O)CCCC2=O)c(=O)n(-c2ccc3c(c2)OCO3)c1=O [I-170] | 10 | 10 | 10 | 10 | 10 |  | 10 | 10 | 10
10 | Cc1ccc(-n2c(=O)c(C(=O)C3=C(O)CCCC3=O)nn(C)c2=O)nc1 [I-182] | 9 | 9 | 8 |  | 9 | 7 | 10 | 8 | 10
11 | Cn1nc(C(=O)C2=C(O)CCCC2=O)c(=O)n(N2CCSCC2)c1=O [I-203] | 9 | 10 | 10 | 10 | 10 | 9 | 7 | 6 | 
12 | CCOc1ccc(-n2c(=O)c(C(=O)C3=C(O)CCCC3=O)nn(C)c2=O)cc1 [I-268] | 9 | 10 | 10 | 10 | 10 |  | 10 | 7 | 8
13 | Cc1cnc(-n2c(=O)c(C(=O)C3=C(O)CCCC3=O)nn(C)c2=O)cn1 [I-292] | 10 | 10 | 10 | 10 | 10 | 7 |  | 8 | 9
14 | CSc1c(Cl)cc(-n2c(=O)c(C(=O)C3=C(O)CCCC3=O)nn(C)c2=O)cc1Cl [I-300] | 8 | 10 | 10 | 10 | 10 |  | 10 | 9 | 10
15 | CC(C)Cn1c(=O)c(C(=O)C2=C(O)CCCC2=O)nn(-c2ccccn2)c1=O [I-307] | 10 | 9 | 9 | 8 | 8 | 7 | 10 |  | 9
16 | Cn1nc(C(=O)C2=C(O)CCCC2=O)c(=O)n(-c2ccc(F)cc2)c1=S [I-480] | 10 | 10 |  | 10 | 10 | 8 | 10 | 9 | 10
17 | Cc1ccc(-n2c(=O)c(C(=O)O)nn(C)c2=O)nc1 [V-361] | 9 | 10 | 10 |  | 10 |  | 8 |  | 10
